PubChem BioAssay (NCI)
“And” between values parts separate entries of the source, which are not always exact repeats. Identical values can stand only once.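 The compound was tested at five concentrations on cells cultured in 96-well plates, with a 48-hour exposure period. Here, GI50 denotes the concentration required for 50% inhibition of growth. At the TGI there is no net growth.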

Legend:
Test in all cases: NCI tumour cell line growth inhibition, 48 h
[1] = test system: HCT-15 colon
[2] = test system: SN12C renal
[3] = test system: SW-620 colon
[4] = test system: NCI-H522 lung
[5] = test system: MOLT-4 leukemia
[6] = test system: SK-MEL-28 melanoma
[7] = test system: UACC-257 melanoma
[8] = test system: NCI-H460 lung
[9] = test system: NCI/ADR-RES ovarian
[10] = test system: MDA-MB-231 breast

Row | SMILES | TGI [1] [µM] | TGI [2] [µM] | TGI [3] [µM] | TGI [4] [µM] | TGI [5] | TGI [6] [µM] | TGI [7] [µM] | TGI [8] [µM] | GI50 [9] [µM] | TGI [9] [µM] | GI50 [1] [µM] | GI50 [2] [µM] | GI50 [3] [µM] | GI50 [4] [µM] | GI50 [10] [µM] | TGI [10] [µM] | GI50 [6] [µM] | GI50 [7] [µM] | GI50 [8] [µM] | GI50 [5] [µM]
1 | CC(C)=C1CCC(CN(C)C)C1=O (stereo not given) | 30.8 | 33.6 | 20.2 | 0.4 | 32.9 µM | 34 | 31.6 | > 100 |  |  |  |  |  |  |  |  |  |  |  | 
2 | CC1(C)CN=C(NN=C(/C=C/c2ccc(C(F)(F)F)cc2)/C=C/c2ccc(C(F)(F)F)cc2)NC1 | 2.45 | 3.33 | 2.66 | 2.57 |  | 3.25 | 2.96 | 3.2 | 1.4 | 3.03 | 0.989 | 1.46 | 1.14 | 1.25 | 0.477 | 1.91 | 1.64 | 1.56 | 1.47 | 
3 | COc1cc(/C=C2\[C@H]3c4c(c(OC)c(C)c(OC)c4OC)CC(C(=O)N2Cc2ccccc2)N3C)c(OC)c(C)c1OC |  | 33.1 | 41.5 | 30.2 | 56.9 µM | 64.2 | 39.6 | 32 |  |  |  |  |  |  |  |  |  |  |  | 
4 | CCC(C)(O)c1cnc(CC(C)C)c(=O)n1O (stereo not given) | > 100 | > 100 | > 100 |  | 48.6 µM | > 100 | > 100 | 81.8 |  |  |  |  |  |  |  | > 100 |  |  |  | 
5 | COc1cc(/C=C\c2cc(OC)c(OC)c(OC)c2)cc(N/C=C\C(=O)c2c[nH]c3ccccc23)c1OC | 5.63 | 7.13 | 3.31 | 3.7 |  | 3.79 | 10.8 | 27.1 | 3.48 | 19.3 | 2.32 | 2.44 | 1.63 | 1.76 | 1.73 | 4.11 | 1.86 | 3.17 | 5.6 | 
6 | ClC(Cl)=C1C(=C(Cl)Cl)C(Cl)(Cl)C1(Cl)Cl | 3.56 | 2.13 | 3.75 | 0.304 | 0.715 µM and 2 µM | 4.06 | 12.9 | 16.6 |  |  |  | 0.774 |  | 0.287 |  | 4.81 |  |  |  | 0.278
7 | Nc1c(-c2ccccc2-c2c(N)[n+]([O-])c3ccccc3[n+]2[O-])[n+]([O-])c2ccccc2[n+]1[O-] | > 100 | > 100 | > 100 | 6.87 | 8.42 µM | > 100 | 35.2 | 18.5 |  |  |  |  |  |  |  |  |  |  |  | 
8 | O=C(CC(=O)C1CCOC1=O)C(=O)Nc1cccc(Cl)c1 (stereo not given) | > 100 | > 100 | > 100 | > 100 | > 100 µM | > 100 | > 100 | > 100 |  |  |  |  |  |  |  |  |  |  |  | 
9 | CCN1c2ccccc2-c2c3c1cc(C)cc3c1ccccc1[n+]2CC | 22.6 | 3.35 | 6.63 | 3.52 | 3.41 µM | 2.46 | 1.65 | 2.73 |  |  |  |  |  |  |  |  |  |  |  | 
